# The source made the active and inactive calls.
# What was measured:
# NS3 = NS3 (Hepatitis C virus, UniProt A3EZJ3); assay: PubChem AID 2173; design: species or system Hepacivirus hominis
# Streptococcus = assay: Group A Streptococcus viability loss, dose response, counter-screen for streptokinase expression inhibitor project, luminescence, BacTiterGlo (AID 1915); type: functional, organism-based;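 also: potency for reduction of bacterial viability or growth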
# Estrogen receptor = target: T1, Estrogen receptor (Homo sapiens, UniProt P03372); assay: potentiators of ERα–SRC-1 coactivator binding, dose response, biochemical, TR-FRET, ERα LBD (AID 737)
# T1 sequence (P03372 whole entry): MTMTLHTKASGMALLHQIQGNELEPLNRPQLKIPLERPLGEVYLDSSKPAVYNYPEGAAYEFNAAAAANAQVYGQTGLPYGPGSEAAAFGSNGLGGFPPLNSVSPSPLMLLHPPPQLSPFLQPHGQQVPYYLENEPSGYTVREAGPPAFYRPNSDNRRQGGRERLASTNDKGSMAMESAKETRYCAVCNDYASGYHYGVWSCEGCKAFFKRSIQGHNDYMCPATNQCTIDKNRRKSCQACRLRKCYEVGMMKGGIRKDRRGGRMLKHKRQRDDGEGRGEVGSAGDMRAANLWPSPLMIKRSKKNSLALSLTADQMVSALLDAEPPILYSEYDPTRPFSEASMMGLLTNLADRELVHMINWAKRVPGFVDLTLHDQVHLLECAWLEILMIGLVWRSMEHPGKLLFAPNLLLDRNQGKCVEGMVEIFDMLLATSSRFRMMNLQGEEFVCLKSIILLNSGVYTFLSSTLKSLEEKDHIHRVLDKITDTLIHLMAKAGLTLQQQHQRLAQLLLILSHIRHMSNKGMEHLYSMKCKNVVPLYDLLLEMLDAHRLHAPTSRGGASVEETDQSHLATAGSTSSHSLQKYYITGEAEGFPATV
# [1] = system: Streptococcus sp. 'group A'; assay: growth inhibition of control SK(-) GAS strain, dose response, counter-screen for streptokinase expression inhibitor project, luminescence, kanamycin, BacTiterGlo, confirmation (AID 1900); type: functional, organism-based
# Streptokinase A = target: T2, Streptokinase A (Streptococcus pyogenes serotype M1, UniProt P10520); assay: S. pyogenes streptokinase expression inhibitors, potency, dose response, plasminogen activation absorbance, OD405 (AID 1914); type: functional, Streptococcus pyogenes M1 GAS;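 also: secreted streptokinase activity via plasminogen activation per viability signal from cell pellet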
# T2 sequence (P10520 whole entry): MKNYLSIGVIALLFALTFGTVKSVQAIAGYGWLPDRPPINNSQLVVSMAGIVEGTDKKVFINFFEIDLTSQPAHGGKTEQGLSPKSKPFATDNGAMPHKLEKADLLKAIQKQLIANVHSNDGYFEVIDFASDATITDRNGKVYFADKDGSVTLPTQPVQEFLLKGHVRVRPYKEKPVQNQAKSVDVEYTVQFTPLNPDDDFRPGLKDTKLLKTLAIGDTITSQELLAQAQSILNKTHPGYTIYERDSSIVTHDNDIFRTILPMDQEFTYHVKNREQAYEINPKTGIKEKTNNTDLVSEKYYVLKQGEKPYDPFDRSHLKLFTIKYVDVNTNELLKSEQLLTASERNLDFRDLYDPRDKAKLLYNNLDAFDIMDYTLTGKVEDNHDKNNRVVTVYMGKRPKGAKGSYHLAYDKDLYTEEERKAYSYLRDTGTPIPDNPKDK
# [2] = target: T3, Neuropeptide Y receptor type 2 (Homo sapiens, UniProt P49146); type: functional, cell-based;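 also: HEK293 cells expressing the receptor and a CNG channel; stimulus was NPY near EC95 followed by isoproterenol to raise cAMP; antagonist potency measured as restoring cAMP signal that NPY suppresses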
# T3 sequence (P49146 whole entry): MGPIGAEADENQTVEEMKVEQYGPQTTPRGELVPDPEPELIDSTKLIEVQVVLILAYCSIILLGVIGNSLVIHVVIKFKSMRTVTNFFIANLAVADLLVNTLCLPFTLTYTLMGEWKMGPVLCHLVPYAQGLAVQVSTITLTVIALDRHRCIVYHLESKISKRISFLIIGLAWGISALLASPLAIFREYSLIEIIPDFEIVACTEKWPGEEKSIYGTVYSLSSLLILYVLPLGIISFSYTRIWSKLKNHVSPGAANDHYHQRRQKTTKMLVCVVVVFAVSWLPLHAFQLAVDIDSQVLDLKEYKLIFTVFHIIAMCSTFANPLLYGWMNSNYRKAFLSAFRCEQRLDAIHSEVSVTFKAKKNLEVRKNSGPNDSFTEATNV
# [3] = target: T4, Neuropeptide Y receptor type 1 (Homo sapiens, UniProt P25929); type: functional;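 also: HEK293 cells with a CNG channel challenged with NPY then isoproterenol; potency as antagonist that reverses NPY suppression of cAMP signal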
# T4 sequence (P25929 whole entry): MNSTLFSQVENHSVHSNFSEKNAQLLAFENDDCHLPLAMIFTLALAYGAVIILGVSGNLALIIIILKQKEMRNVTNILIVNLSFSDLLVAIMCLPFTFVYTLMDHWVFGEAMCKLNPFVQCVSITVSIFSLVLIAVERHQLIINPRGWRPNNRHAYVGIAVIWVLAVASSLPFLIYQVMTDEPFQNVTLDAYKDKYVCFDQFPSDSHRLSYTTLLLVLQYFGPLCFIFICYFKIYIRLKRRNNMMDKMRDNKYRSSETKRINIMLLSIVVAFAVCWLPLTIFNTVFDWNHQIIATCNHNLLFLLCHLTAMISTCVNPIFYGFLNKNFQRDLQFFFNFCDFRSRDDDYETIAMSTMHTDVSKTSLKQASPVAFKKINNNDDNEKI
# [4] = HEp-2 cell cytotoxicity, dose response, cytotoxicity control for RSV inhibitor project, HTS (AID 2410); type: functional; details: human respiratory syncytial virus
# [5] = inhibitors of Bluetongue virus cytopathic effect, confirmation, arbovirus, BSR cells (AID 1250); type: functional;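 also: protection from viral cytopathic effect measured as cell viability by ATP luminescence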
# [6] = target: Long-chain-fatty-acid--AMP ligase FadD28 (Mycobacterium tuberculosis, UniProt P9WQ59); assay: Fluorescence polarization aasay to screen for inhibitors that compete for the binding of FadD28 to a bisubstrate Measured in Biochemical System Using Plate Reader - 2147-01_Inhibitor_Dose_CherryPick_Activity.; type: functional, Mycobacterium tuberculosis H37Rv
# Long-chain-fatty-acid--AMP ligase FadD28, sequence (P9WQ59 whole entry): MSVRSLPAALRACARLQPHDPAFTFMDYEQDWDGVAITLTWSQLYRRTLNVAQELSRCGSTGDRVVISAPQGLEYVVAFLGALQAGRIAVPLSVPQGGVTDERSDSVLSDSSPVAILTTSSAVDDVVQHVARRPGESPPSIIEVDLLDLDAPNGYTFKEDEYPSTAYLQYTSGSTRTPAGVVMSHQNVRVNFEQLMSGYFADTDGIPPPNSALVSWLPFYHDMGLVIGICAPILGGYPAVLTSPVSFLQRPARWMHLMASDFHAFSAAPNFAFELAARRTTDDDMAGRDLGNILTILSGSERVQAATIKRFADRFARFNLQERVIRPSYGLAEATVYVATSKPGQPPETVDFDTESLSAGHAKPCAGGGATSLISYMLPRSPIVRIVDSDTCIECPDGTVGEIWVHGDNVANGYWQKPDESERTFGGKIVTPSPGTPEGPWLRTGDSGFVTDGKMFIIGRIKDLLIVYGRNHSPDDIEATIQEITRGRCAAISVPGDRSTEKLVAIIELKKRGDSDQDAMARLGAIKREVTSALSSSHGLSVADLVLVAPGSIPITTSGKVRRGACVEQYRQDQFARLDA
# NS3, sequence (A3EZJ3 whole entry): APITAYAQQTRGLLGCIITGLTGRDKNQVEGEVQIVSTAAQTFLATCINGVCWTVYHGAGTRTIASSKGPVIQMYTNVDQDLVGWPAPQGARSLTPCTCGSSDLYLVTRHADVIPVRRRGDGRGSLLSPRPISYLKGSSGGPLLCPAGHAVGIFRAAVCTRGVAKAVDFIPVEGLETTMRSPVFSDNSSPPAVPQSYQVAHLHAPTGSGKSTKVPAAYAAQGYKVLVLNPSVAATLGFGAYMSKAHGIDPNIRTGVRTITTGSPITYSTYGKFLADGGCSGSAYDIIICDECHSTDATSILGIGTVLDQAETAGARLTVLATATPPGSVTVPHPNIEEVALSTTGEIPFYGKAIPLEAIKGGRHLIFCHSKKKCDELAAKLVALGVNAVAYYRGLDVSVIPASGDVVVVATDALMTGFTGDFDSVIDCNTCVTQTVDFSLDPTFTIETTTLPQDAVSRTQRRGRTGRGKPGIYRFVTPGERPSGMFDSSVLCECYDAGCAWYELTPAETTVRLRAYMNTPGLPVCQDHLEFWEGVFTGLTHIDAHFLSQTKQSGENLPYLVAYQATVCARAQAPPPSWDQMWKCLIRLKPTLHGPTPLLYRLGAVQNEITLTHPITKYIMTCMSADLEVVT
structure (smiles),measurement,setting,value
CCC(C(=O)O)n1nnc(-c2ccc(-c3ccc(OC)cc3)cc2)n1 (stereo unspecified),IC50,NS3,8.42 µM (active)
CC(Oc1ccc(Cl)cc1Cl)C(=O)Nc1ccc2oc(-c3ccncc3)nc2c1 (stereo unspecified),EC50,Streptococcus,9.54 µM (active)
same,EC50,Estrogen receptor,11.4 µM (active)
same,EC50,[1],8.75 µM (active)
same,EC50,Streptokinase A,> 150 µM (not active)
O=C(C1CCN(Cc2ccc(Cl)cc2)CC1)N1CCN(C(c2ccccc2)c2ccccc2)CC1,IC50,[2],> 35 µM (not active)
same,IC50,[3],> 35 µM (not active)
CCC1=NN2C(=N)/C(=C\c3cccn3-c3c(C)cccc3C)C(=O)N=C2S1,IC50,cells,20.7 µM (active)
same,CC50,[4],19.5 µM (active)
same,IC50,[5],38.4 µM (active)
same,AC50,[6],> 100 µM (inactive)
